Laboratory results from US12227510B2, “Crystal form of acid addition salt of furopyrimidine compound” (HANMI PHARM. CO., LTD., priority 2019, dated 2025).
≈ marks a conversion by molar mass, not a printed value. Where two headings read alike, the source gives them in different places.

Columns and labels:
[1] = Stability of the crystalline form under storage conditions; format: physicochemical; conditions: for stability under long-term storage conditions: temperature of 25° C. and relative humidity of 60%; for stability under accelerated conditions: temperature of 40° C. and relative humidity of 75%
Procedure: (§1) HPLC analysis was performed for analyzing purity and contents such as a stability test, etc., using an Agilent 1100/1200 series HPLC Systems (Agilent, USA) analyzer, and the conditions used for HPLC were as follows. • Purity and Content Analysis Conditions: Furopyrimidine Compound of Formula 1 • Column: Hydrosphere C18 (YMC), 5 μm (150 mm×4.6 mm) • Column temperature: 30° C. • Detector: UV spectrophotometer • Detection wavelength: 254 nm • Flow rate: 1.0 mL/min • Time of analysis: 35 min • Eluent: NaClO4—NaH2PO4— phosphate buffer solution (pH 2.5±0.1)/CH3CN=65/35(v/v %) 5. Ion Chromatography (IC)

[2] = format: physicochemical; conditions: for pH of solution: solution of the water solubility test, 20 mg/mL in water
Procedure: as §1
To measure water solubility, each sample of the acid addition salts of the compound of Formula 1 prepared in Examples 1 to 6 was prepared in deionized water under the following conditions, and then each solution was analyzed by HPLC according to content measurement conditions of the compound of Formula 1. The dissolved amounts (LOD: more than 0.001 mg/mL) based on the compound of Formula 1 were measured, and then the values were converted.
In detail, each 100 mg of various forms was added to 5 mL of water, and mixed using a Voltamixer at 20° C. to 25° C., and a filtrate filtered using GH Polypro membrane Acrodisc, PALL (pore size of 0.2 μm) was diluted with a dilution solvent for HPLC.

[3] = Dynamic vapor sorption (DVS) hygroscopicity; format: physicochemical
Procedure: DVS analysis was performed in a DVS advantage (Surface measurement system, United Kingdom) analyzer at 25° C. with a relative humidity of 0% to 90%. 10 mg of a sample was placed into a wire-mesh vapor sorption balance pan, and then attached to a DVS-advantage dynamic vapor sorption balance via surface measurement systems. Until a stable weight was achieved (99.5% completion of steps), the sample was applied to a ramping profile with a relative humidity (RH) of 10% to 90% with a 10% increase of the sample while maintaining the sample in each step. Upon completion of the sorption cycle, the sample was dried using the same process while maintaining a relative humidity of […]. The changes in the sample weight during the adsorption/desorption cycle (repeated 3 times) were recorded, and the hygroscopicity of the sample was measured.

[4] = amorphous compound of Formula 1 as prepared in the reference documents; cited from earlier work
[5] = 25° C., region with a relative humidity of 10% to 90%

Structure (SMILES)	stability under long-term storage conditions [1]	stability under accelerated conditions [1]	Solubility [2]	water absorption in DVS [3, 5]	also measured
C=CC(=O)Nc1cccc(Oc2nc(Nc3ccc(N4CCN(C)CC4)cc3)nc3ccoc23)c1 [Example 5, N-(3-(2-(4-(4-methylpiperazin-1-yl)phenylamino)furo[3,2-d]pyrimidin-4-yloxy)phenyl)acrylamide]	sufficiently stable	sufficiently stable	0.93 mg/mL (≈ 1980 µM)	about 1%	pH of solution ([2]; listed as 1MsOH•1H2O): 6.1
C=CC(=O)Nc1cccc(Oc2nc(Nc3ccc(N4CCN(C)CC4)cc3)nc3ccoc23)c1 [Example 4, N-(3-(2-(4-(4-methylpiperazin-1-yl)phenylamino)furo[3,2-d]pyrimidin-4-yloxy)phenyl)acrylamide]	sufficiently stable	sufficiently stable	1.13 mg/mL (≈ 2400 µM)	about 2%	pH of solution ([2]; listed as 1MsOH•anhydrous): 6.3
C=CC(=O)Nc1cccc(Oc2nc(Nc3ccc(N4CCN(C)CC4)cc3)nc3ccoc23)c1 [Example 6, N-(3-(2-(4-(4-methylpiperazin-1-yl)phenylamino)furo[3,2-d]pyrimidin-4-yloxy)phenyl)acrylamide]	sufficiently stable	sufficiently stable	9.59 mg/mL (≈ 20400 µM)	about 1%	solubility compared in words [2]: remarkably high solubility; pH of solution ([2]; listed as 1EsOH anhydrous): 6.3
C=CC(=O)Nc1cccc(Oc2nc(Nc3ccc(N4CCN(C)CC4)cc3)nc3ccoc23)c1 [Formula 1 (Free base), N-(3-(2-(4-(4-methylpiperazin-1-yl)phenylamino)furo[3,2-d]pyrimidin-4-yloxy)phenyl)acrylamide]			0.001 mg/mL		solubility in water [4]: less than 0.001 mg/mL; pH of solution [2]: 7.2~7.3
C=CC(=O)Nc1cccc(Oc2nc(Nc3ccc(N4CCN(C)CC4)cc3)nc3ccoc23)c1 [Example 1, N-(3-(2-(4-(4-methylpiperazin-1-yl)phenylamino)furo[3,2-d]pyrimidin-4-yloxy)phenyl)acrylamide]	sufficiently stable	sufficiently stable	0.9~1.4 mg/mL		stability under harsh conditions ([1]; printed: temperature of 40° C. and relative humidity of 75%): sufficiently stable; solubility compared in words [2]: higher solubility than the crystalline form of the monohydrochloride; pH of solution ([2]; listed as 2HCl•3H2O): 2.3~2.4; water absorption in DVS ([3]; region with a relative humidity of 0% to 20%): showed water absorption; water absorption in DVS ([3]; region with a relative humidity of 30% or more): very low water absorption
C=CC(=O)Nc1cccc(Oc2nc(Nc3ccc(N4CCN(C)CC4)cc3)nc3ccoc23)c1 [Example 2, N-(3-(2-(4-(4-methylpiperazin-1-yl)phenylamino)furo[3,2-d]pyrimidin-4-yloxy)phenyl)acrylamide]	sufficiently stable	sufficiently stable	0.3~0.7 mg/mL	about 0.8%	pH of solution ([2]; listed as 1HCl•2H2O): 5.8~5.9
C=CC(=O)Nc1cccc(Oc2nc(Nc3ccc(N4CCN(C)CC4)cc3)nc3ccoc23)c1 [Example 3, N-(3-(2-(4-(4-methylpiperazin-1-yl)phenylamino)furo[3,2-d]pyrimidin-4-yloxy)phenyl)acrylamide]	sufficiently stable	sufficiently stable	1.27 mg/mL (≈ 2700 µM)	about 1%	pH of solution ([2]; listed as 1HCl•anhydrous): 5.9~6.0
